Data from patent US20040023884A1, “Biologically active peptides from functional domains of bactericidal/permeability-increasing protein and uses thereof” (priority 1993, published 2004).
Ends that are not written are not given here.

B1: rLBP: recombinant lipopolysaccharide binding protein (LBP holoprotein) (protein, UniProt P18428 26-481, looked up)
Lipopolysaccharide-binding …: ANPGLVARITDKGLQYAAQEGLLALQSELLRITLPDFTGDLRIPHVGRGRYEFHSLNIHSCELLHSALRPVPGQGLSLSISDSSIRVQGRWKVRKSFFKLQGSFDVSVKGISISVNLLLGSESSGRPTVTASSCSSDIADVEVDMSGDLGWLLNLFHNQIESKFQKVLESRICEMIQKSVSSDLQPYLQTLPVTTEIDSFADIDYSLVEAPRATAQMLEVMFKGEIFHRNHRSPVTLLAAVMSLPEEHNKMVYFAISDYVFNTASLVYHEEGYLNFSITDDMIPPDSNIRLTTKSFRPFVPRLARLYPNMNLELQGSVPSAPLLNFSPGNLSVDPYMEIDAFVLLPSSSKEPVFRLSVATNVSATLTFNTSKITGFLKPGKVKVELKESKVGLFNAELLEALLNYYILNTFYPKFNDKLAEGFPLPLLKRVQLYDLGLQIHKDFLFLGANVQYMRV

Legend:
[1] = system: rough mutant E. coli J5 bacteria; test: Radial diffusion bactericidal assay, E. coli J5; type: cell-based; conditions: for pmol added to well to achieve a 30 mm^2 bactericidal zone, E. coli J5: radial diffusion, PROBIT analysis, E. coli J5 (rough)
Procedure, shortened: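 Wells received 5 or 10 μL of BPI fragment, pre-incubated 3 h at 37 °C. The underlayer agarose carried washed log-phase organisms at 4×10^6 CFU/mL.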

[2] = 3H-heparin binding assay (affinity and capacity); conditions: for Heparin Capacity: heparin bound at saturation; for Kd: read-out: Heparin Affinity
Procedure, shortened: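 Peptide fragments were bound to PVDF-membrane wells and incubated with 3H-heparin in blocking buffer for 1 h at 4 °C. After washing, bound radioactivity was quantified by liquid scintillation counting, with BSA background subtracted; rBPI23 served as positive control.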

E. coli 0113 LPS = test: Limulus Amoebocyte Lysate (LAL) inhibition assay; type: biochemical; conditions: for LAL (relative difference): alanine variant relative to BPI.13
Description: BPI proteolytic fragments produced according to Example 1 were subjected to a Limulus Amoebocyte Lysate (LAL) inhibition assay to determine LPS binding properties of these fragments. Specifically, each of the fragments were mixed in Eppendorf tubes with a fixed concentration of E. coli 0113 LPS (4 ng/mL final concentration) and incubated at 37° C. for 3 hours with occasional shaking. Addition controls comprising rBPI23 at 0.05 μg/mL were also tested. Following incubation, 360 μL of Dulbecco's phosphate buffered saline (D-PBS; Grand Island Biological Co. (GIBCO), Long Island, N.Y.) were added per tube to obtain an LPS concentration of 200 pg/mL for the LAL assay. Each sample was then transferred into Immulon II strips (Dynatech, Chantilly, Va.) in volumes of 50 μl per well.
Limulus amoebocyte Lysate (Quantitative Chromogenic LAL kit, Whitaker Bioproducts, Inc., Walkersville, Md.) was added at 50 μL per well and the wells were incubated at room temperature for 25 minutes. Chromogenic substrate was then added at a volume of 100 μL per well and was well mixed. After incubation for 20 to 30 minutes at room temperature, the reaction was stopped with addition of 100 μL of 25% (v/v) acetic acid. Optical density at 405 nm was then measured in a multiplate reader (Model Vmax, […], Menlo Park, Calif.) with the results shown in FIG. 2 in terms of percent inhibition of LPS. In this Figure, the filled circle represents rBPI23; the open circle represents Asp-N fragment A3; the x represents Asp-N fragment A2, the filled square represents Asp-N fragment A4; the filled triangle represents Asp-N fragment A1A2; the open square represents Asp-N fragment A6a; the small open triangle represents CNBr fragment C3; and the small filled square represents CNBr fragment C1/C5.

[3] = system: E. coli 0111:B4 (smooth) bacteria; test: Radial diffusion bactericidal assay, E. coli 0111:B4; type: cell-based; conditions: radial diffusion; PROBIT analysis; E. coli O111:B4 (smooth)
C. albicans = test: Radial diffusion fungicidal assay, Candida albicans; type: cell-based; conditions: radial diffusion
Candida albicans = type: cell-based; conditions: for MIC (x Fold change in fungicidal activity): alanine variant relative to BPI.13
[4] = system: zymosan-stimulated NO production by RAW 264.7 cells; test: Zymosan-stimulated NO production by RAW 264.7 cells; type: cell-based, mouse
Description: An additional LPS neutralization screening assay for BPI functional domain peptides was developed using an assay for NO production in mouse cells treated with LPS (see Lorsbach et al., 1993, J. Biol. Chem. 268: 1908-1913). In this assay, mouse RAW 264.7 cells (ATCC Accession No. TIB71) were treated with bacterial LPS. The cells were incubated in 96-well plates and stimulated for 2 hours with E. coli 0113 LPS or zymosan, in the presence or absence of _-interferon, rLBP, fetal bovine serum (FBS) or normal human serum (NHS), or rBPI21Δcys. After this incubation, the cells were washed with fresh media and incubated overnight in media containing 10% FCS. The NO released from the cells accumulated in the media and spontaneously converted to nitrite. This nitrite was assayed in situ by the Griess reaction, as follows. The nitrite was reacted with the primary amine of an added sulfanilamide and formed a diazonium salt. This salt was then reacted with added naphthylethylenediamine to form a red azo-dyc. The Griess reaction was performed at room temperature in about 10 minutes. The amount of produced NO was estimated from a standard curve of Griess reaction products determined spectrophotometrically as Absorbance at a wavelength of 550 nm.

Molecule | pmol added to well to achieve a 30 mm^2 bactericidal zone, E. coli J5 [1] | Heparin Capacity [2] [ng] | Kd [2] [nM] | LAL (relative difference) (E. coli 0113 LPS) | pmol added to well to achieve a 30 mm^2 bactericidal zone, E. coli O111:B4 [3] | C. albicans: pmol required for 30 mm^2 zone (C. albicans) [pmol] | MIC C. alb (Candida albicans) [µg/mL] | MIC (x Fold change in fungicidal activity) (Candida albicans) | fold reduction in bactericidal activity in the radial diffusion assay ([1]; alanine variant vs unsubstituted peptide) | LAL / LPS inhibition activity (in words) (E. coli 0113 LPS) | HEPCAP (x Fold change in activity) ([2]; heparin binding capacity, relative to BPI.13) | decline of Kd of heparin binding ([2]; vs unsubstituted peptide) [fold] | inhibition of zymosan-stimulated NO production (in words) [4]
KSKVGWAIQLFHKK [BPI.37] | 1,284.00 pmol | 136.7 | 189 | = (no difference in the LAL assay) | b (no detectable activity up to 5 μg/well) | 252.71 | 6.25 | = |  |  |  |  | 
KSKVGWLAQLFHKK [BPI.38] | 1,698.20 pmol | 194.3 | 579 | = (no difference in the LAL assay) | b (no detectable activity up to 5 μg/well) | 390.65 | 6.25 | = |  |  |  |  | 
KSKVGWLIQAFHKK [BPI.40] | 1,760.10 pmol | 160.5 | 547 | = (no difference in the LAL assay) | b (no detectable activity up to 5 μg/well) | 253.17 | 3.13 |  | approximately 5 fold | large decrease in LPS-binding activity |  |  | 
KSKVGWLIQLAHKK [BPI.41] | 2,465.40 pmol | 119.1 | 469 | = (no difference in the LAL assay) | b (no detectable activity up to 5 μg/well) | 733.70 | 3.13 |  |  |  |  |  | 
KSKVGWLIQLFAKK [BPI.42] | 264.80 pmol | 369.1 | 820 | = (no difference in the LAL assay) | 3,731.70 pmol | 548.49 | 6.25 | = |  |  | =1.0 x Fold | 1.2 | 
KSKVGWLIQLFHAK [BPI.43] | 729.40 pmol | 283.9 | 492 | = (no difference in the LAL assay) | 4,872.30 pmol | 784.78 | 12.50 |  |  |  |  |  | 
KSKVGWLIQLFHKA [BPI.44] | 480.80 pmol | 335.6 | 579 | = (no difference in the LAL assay) |  | 577.65 | 6.25 | = |  |  |  |  | 
B1 |  |  |  |  |  |  |  |  |  |  |  |  | no significant inhibition
